Experiment: method code SF-CR, from PMID: 5159517

SMILES: COc1cnc(NS(=O)(=O)c2ccc(N)cc2)nc1
- logP: 0.41

— the SangsterLogP compilation
